Data on eight molecules can be found in patent EP0727211A1, “Use of src SH2 specific compounds to treat a bone resorption disease” (SMITHKLINE BEECHAM CORPORATION, priority 1995, dated 1996).

One assay deals with T1, human hcp SH2 domain (Homo sapiens, UniProt P29350).
T1 sequence (P29350 4-100): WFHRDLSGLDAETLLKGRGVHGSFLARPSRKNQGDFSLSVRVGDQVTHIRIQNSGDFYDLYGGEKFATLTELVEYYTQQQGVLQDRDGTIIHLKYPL
In words: SH2 domain / pY peptide binding assay (ELISA-based, 96 well plate), hcp SH2. The following applies: cloned human SH2 domain fusion protein; 0.1 uM biotinylated pY peptide; Table I; read-out: Hcp (IC50). As for the experimental part: The inhibitory activity of compounds at the different human SH2 domains was determined in vitro using SH2 domains expressed as fusion proteins in E. coli. The SH2 domains used herein were the human forms of the src SH2 domain, Grb2 SH2 domain, lck SH2 domain, fyn SH2 domain, SH-PTP2 SH2 domain, p85 SH2 domain and hcp SH2 domain.
The fusion proteins containing the src, lck and hcp SH2 domains were expressed as the general sequence: DET1-DET2-spacer-ek-SH2, where DETI, DET2, spacer, ek and SH2 are as described below. DET1 ("defined epitope tag 1") (SEQ ID NO: 1) is an 11 amino acid sequence found in the Human Immunodeficiency Virus Type 1 (HIV-1) envelope protein gp120 (or gp160). Monoclonal antibodies to various epitopes of HIV-1 gp120 (or gp160) are known in the art, see, for example U.S. Patent 5,166,050. One preferred example is monoclonal antibody 178.1 (see, e.g., Thiriart et al., J. Immunol., 143:1832-1836 (1989)), which was prepared by immunization of mice with a yeast-expressed HIV-1 gp160 molecule from strain BH10 (Ratner et al., Nature, 313:277-284 (1985)). This tag was used for detection of expression (by Western blot), for purification of the protein (by affinity chromatography), and for configuring assays in which the fusion protein was captured or immobilized using the 178.1 antibody. DET2 is a hexahistidine sequence tag (SEQ ID NO: 2) which binds to nickel-containing resins and was used for purification purposes. Spacer (SEQ ID NO: 3) was utilized to design a BamH1 restriction site at the indicated position of the construct. The term -ekrefers to a recognition sequence (SEQ ID NO: 4) for the enterokinase protease which provides for the optional removal of the tags from the SH2 domain, thus producing an SH2 domain that contains no extraneous amino acids. SH2 domains which contain no extraneous amino acids are preferable to tagged protein for crystallography studies. SH2 refers to the SH2 domains of different proteins.
Cloning and expression of human hcp SH2 domain containing tags and an enterokinase proteolytic cleavage site (DET1-DET2-spacer-ek-hcp SH2).
A DNA sequence encoding protein ek-hcp SH2 was reverse transcriptase-PCR amplified from human fetal liver RNA. RNA isolation used Tri-Reagent (Molecular Research Center Inc.) and the Reverse Transcriptase system (GIBCO-BRL) according to the manufacture's instructions. PCR was carried out using the following primers: [formula]
The PCR product was digested with BglII and XbaI, followed by isolation of the digested fragment on an agarose gel. The fragment was ligated into BamHI-XbaI-digested expression vector containing the tagged human src gene DET1-DET2-spacer-ek-src SH2 described in Procedure 2 above. In that vector, the BamHI site is located in between the coding regions for DET2 and ek, and the XbaI site is located after the 3' end of the SH2 coding region. Thus, the ek-hcp SH2 sequence replaced the ek-src SH2 sequence in the above vector. The ligation reaction was used to transform E. coli MM294cI^+. The construct containing DET1-DET2-spacer-ek-hcp SH2 was confirmed by DNA sequencing (SEQ ID NO: 7) and used to transform E. coli GI698 (Invitrogen Corporation, San Diego, CA). Induction of the phage lambda promoter was induced by addition of tryptophan to the culture medium to 10 mg/ml, per the manufacture's instructions. A Coomassie-Blue-stained, Western-blot-positive induced protein band with an apparent molecular weight of 15,000 was observed after tryptophan induction of cells growing at 30° C.
Cells were lysed at neutral pH by sonication in the presance of lysozyme. After centrifugation, the insoluble pellet was solubilized with 8 M urea in Tris buffer pH 8 and bound onto a Ni^++NTA column. The resin was washed with equilibration buffer (Tris buffer pH 8 containing 0.5 M NaCl, 8 M urea and 5 mM BME) and the same buffer containing 15 mM imidazole. […]
Broadly, the IC50 is the point on the concentration scale where inhibition reaches its midpoint. For `Cc1ccc(C(=O)c2ccc(C(=O)c3ccc(CC=O)cc3)cc2)cc1` [Compound 4, 4-[4-(4-Methylbenzoyl)benzoyl]phenylacetaldehyde], the IC50 stood at 30000 nM.

As for “4-acetamido-benzamido-trans-4-methyl-cyclohexyl-N-1-(amino-R-2-(methoxy methyl)-pyrrolidine) carboxamide [Compound 8]”, the IC50 was above 100000 nM. The same measure, in the same setting: with `CCCCCCNC(=O)[C@H]1CC[C@H](CNC(=O)c2ccc([N+](=O)[O-])cc2)CC1` [Compound 7, 4-nitro-benzamido-trans-4-methyl-cyclohexyl-N-hexyl carboxamide] the figure was above 300000 nM; with `CCCNC(=O)[C@H]1CC[C@H](CNC(=O)/C=C/c2ccc(C=O)cc2)CC1` [Compound 9, 4-formyl-E-cinnamido-trans-4-methyl-cyclohexyl-N-(propyl) carboxamide], 12000 nM. On the same count and under the same terms, the same measure for `Cc1nc2sc3c(c2c2[nH][nH]c(=O)c12)CCC1(C3)OCCO1` [Compound 3, 8,8-Ethylenedioxy-2,3,7,8,9,10-hexahydro-4-methyl-1H-benzo[b]thieno[2,3-b]pyrazolo[3,4-d]pyridin-3-one]: 1200 nM; for `Cc1nc2sc3c(c2c2[nH][nH]c(=O)c12)CCCC3` [Compound 10, 2,3,7,8,9,10-Hexahydro-4-methyl-1H-benzo[b]thieno[2,3-b]pyrazolo[3,4-d]pyridin-3-one]: 1200 nM; for `Cc1nc2sc3c(c2c2c1c(=O)[nH]n2C)CCC1(C3)OCCO1` [Compound 5, 1,4-Dimethyl-8,8-ethylenedioxy-2,3,7,8,9,10-hexahydro-1H-benzo[b]thieno[2,3-b]pyrazolo[3,4-d]pyridin-3-one]: 100 nM.

The assay is the same for the next values; noted with them: read-out: Hcp (IC50); cloned human SH2 domain fusion protein; 0.1 uM biotinylated pY peptide; Table I.
`N[C@@H](Cc1cc(Br)c(Oc2ccc(O)c(Cc3ccc(O)nn3)c2)c(Br)c1)C(=O)O` [Compound 2, L-3,5-Dibromo-3'-(6-oxo-3(1H)-pyridazinylmethyl)-thyronine]: the IC50 stood at 900 nM.
